Results: patent US9211310B2, “Use of a Chinese medicine composition in preparing medicaments for treating secondary prevention of myocardial infarction” (TASLY PHARMACEUTICAL GROUP CO., LTD, priority 2010, dated 2015)

Tested on: patients after acute myocardial infarction
Assay: Life quality, Seattle Angina Questionnaire (SAQ), same clinical trial
Assay type: in vivo, human
Settings: FAS; 1 month after treatment
Source text: 3508 patients who were in accordance with the diagnostic standards of AMI for 28 days to 2 years and differentiated as Qi deficiency and blood stagnation syndrome by TCM were studied. 0.5 g Chinese medicine composition prepared by the method of EXAMPLE 1 (Coded as QSYQ) was administrated half an hour after meal, 3 times per day.
There were 19 questions in the Seattle angina questionnaire (SAQ), including 5 parts: physical limitation (PL), anginal stability (AS), anginal frequency (AF), treatment satisfaction (TS) and disease perception (DP). After being given necessary explanation by doctors, the questions were answered independently by patients.
They included the overall survival time, angina pectoris score, TCM symptom score and life quality score, where angina pectoris score, TCM symptom score and life quality score were evaluated at randomization, in 1st, 3rd, 6th, 9th, 12th month after treatment and 18th month after follow-up.
All evaluation results of SAQ were described during the period of observation, and Wilcoxon rank sum test was used for inter-group comparison.
The evaluation results in the SAQ were depicted in different observations, and inter-group comparison was tested by Wilcoxon Rank-sum test.

CC(=O)Oc1ccccc1C(=O)O [Control group, aspirine]
8th question: Highly satisfied, patients (%): (17.37%) | 8th question: Mostly dissatisfied, patients (%): (4.07%) | 8th question: Mostly satisfied, patients (%): (50.29%) | 8th question: Partly satisfied, patients (%): (27.92%) | 9th question: Few, patients (%): (26.78%) | 9th question: Mild, patients (%): (36.07%) | 9th question: Moderate, patients (%): (18.81%) | 9th question: Severe, patients (%): (2.24%) | 9th question: Uneffective, patients (%): (16.11%) | 10th question: Dissatisfied, patients (%): (22.71%) | 10th question: Highly satisfied, patients (%): (4.07%) | 10th question: Mostly dissatisfied, patients (%): (22.94%) | 10th question: Mostly satisfied, patients (%): (20.70%) | 10th question: Partly satisfied, patients (%): (29.59%) | 11th question: Continuously worried, patients (%): (6.71%) | 11th question: No worried, patients (%): (4.70%) | 11th question: Occasionally worried, patients (%): (40.94%) | 11th question: Often worried, patients (%): (20.93%) | 11th question: Seldom worried, patients (%): (26.72%) | SAQ 4th question, 1-2 times per week: % of patients: (17.55%) | SAQ 4th question, 1-2 times per week: number of patients: 306 | SAQ 4th question, 1-3 times per day: % of patients: (6.54%) | SAQ 4th question, 1-3 times per day: number of patients: 114 | SAQ 4th question, <1 time per week: % of patients: (9.58%) | SAQ 4th question, <1 time per week: number of patients: 167 | SAQ 4th question, Not used: % of patients: (53.10%) | SAQ 4th question, Not used: number of patients: 926 | SAQ 4th question, ≧3 times per week: % of patients: (13.19%) | SAQ 4th question, ≧3 times per week: number of patients: 230 | SAQ 4th question, ≧4 times per day: % of patients: (0.06%) | SAQ 4th question, ≧4 times per day: number of patients: 1 | SAQ 5th question, Few: % of patients: (21.56%) | SAQ 5th question, Few: number of patients: 376 | SAQ 5th question, Mild: % of patients: (28.90%) | SAQ 5th question, Mild: number of patients: 504 | SAQ 5th question, Moderate: % of patients: (17.43%) | SAQ 5th question, Moderate: number of patients: 304 | SAQ 5th question, None: % of patients: (26.32%) | SAQ 5th question, None: number of patients: 459 | SAQ 5th question, Not medicated by doctors: % of patients: (3.38%) | SAQ 5th question, Not medicated by doctors: number of patients: 59 | SAQ 5th question, Severe: % of patients: (2.41%) | SAQ 5th question, Severe: number of patients: 42 | SAQ 6th question, Dissatisfied: % of patients: (0.46%) | SAQ 6th question, Dissatisfied: number of patients: 8 | SAQ 6th question, Highly consent: % of patients: (18.00%) | SAQ 6th question, Highly consent: number of patients: 314 | SAQ 6th question, Mostly dissatisfied: % of patients: (4.01%) | SAQ 6th question, Mostly dissatisfied: number of patients: 70 | SAQ 6th question, Mostly satisfied: % of patients: (49.14%) | SAQ 6th question, Mostly satisfied: number of patients: 857 | SAQ 6th question, Partly satisfied: % of patients: (28.38%) | SAQ 6th question, Partly satisfied: number of patients: 495 | SAQ 7th question, Dissatisfied: % of patients: (0.17%) | SAQ 7th question, Dissatisfied: number of patients: 3 | SAQ 7th question, Highly satisfied: % of patients: (23.31%) | SAQ 7th question, Highly satisfied: number of patients: 406 | SAQ 7th question, Mostly dissatisfied: % of patients: (3.10%) | SAQ 7th question, Mostly dissatisfied: number of patients: 54 | SAQ 7th question, Mostly satisfied: % of patients: (49.94%) | SAQ 7th question, Mostly satisfied: number of patients: 870 | SAQ 7th question, Partly satisfied: % of patients: (23.48%) | SAQ 7th question, Partly satisfied: number of patients: 409 | SAQ Question 1-1 Mildly limited, number of patients: 24 | SAQ Question 1-1 Mildly limited, percent of patients: (1.38%) | SAQ Question 1-1 Moderately limited, number of patients: 11 | SAQ Question 1-1 Moderately limited, percent of patients: (0.63%) | SAQ Question 1-1 Not limited, number of patients: 1607 | SAQ Question 1-1 Not limited, percent of patients: (92.20%) | SAQ Question 1-1 Other reasons, number of patients: 4 | SAQ Question 1-1 Other reasons, percent of patients: (0.23%) | SAQ Question 1-1 Severely limited, number of patients: 2 | SAQ Question 1-1 Severely limited, percent of patients: (0.11%) | SAQ Question 1-1 Slightly limited, number of patients: 95 | SAQ Question 1-1 Slightly limited, percent of patients: (5.45%) | SAQ Question 1-2 Mildly limited, number of patients: 32 | SAQ Question 1-2 Mildly limited, percent of patients: (1.84%)
